We go through two compounds from patent US10363305B2, “Anti-ganglioside compound for targeting cancer and generating antibodies” (REALIST PHARMA, INC., priority 2013, dated 2019).

One series deals with EL4-GD2+ cells. Briefly: Mixed lymphocyte reaction, 3H-thymidine incorporation, EL4-GD2+ stimulators. Type of series: cell-based, mouse. Conditions: EL4-GD2+ cells alone. The procedure:
(§1) EL4-GD2^+ cells and control Jurkat cells were treated with 25 μg/ml Mitomycin (Sigma) for 1 hr to arrest their proliferation. After the cells were washed three times with media to remove Mitomycin, they were plated in 96-well plates at 2×10^5 cells/well. Single cell suspensions of splenocytes were obtained from twice immunized (as above) and from vehicle injected control mice. Cells were separated following the protocol of the EASYSEP™ magnet (Stem Cell Tech). […] The T cells were plated at a ratio of 10:1 with Mitomycin-treated EL4 or Jurkat cells. As controls, cultures of T cells alone (no stimulating tumor cells) or T cells treated with ConcanavilinA were used. After 5 days of culture, 0.1μCi/well ^3H-thymidine (Sigma-Aldrich) was added. DNA-incorporated ^3H-thymidine was counted by liquid scintillation, and data are reported as average cpm±sd.

The subject of the next series is Jurkat cells. Briefly: Mixed lymphocyte reaction, 3H-thymidine incorporation, Jurkat stimulators. Format: cell-based. Conditions: Jurkat cells alone. Here is the method: as §1
A short description of a further series: Water solubility. Format: physicochemical. Here is the method: The carbohydrates were synthesized as described (Gilbert et al., 2002, J Biol Chem, 277: 327), by modification of the process for phenylthio-GD2 (Tong et al., 2010, Cehm Biol, 17: 183) in which the thio-phenyl analog originally reported was substituted with an p-aminophenyl-(β-D-lactopyranoside (AP-Lac), from Toronto Research Chemicals), for subsequent conjugation to the dendrimer (see below). AP-GD2 was water soluble (>20 mg/ml), and was purified to >99% purity by size-exclusion (Superdex 30 16 mm×85 cm column, GE Health Care). The measured molecular weight of AP-GD2 was 1218 g/mol and corresponded to expected values. Structures were verified by 1D and 2D NMR spectroscopy and mass spectrometry (EI-MS) (see FIGS. 2A and B).

`CO[C@@]12[C@H](COC(N)=O)C3=C(C(=O)C(C)=C(N)C3=O)N1C[C@@H]1N[C@@H]12` [Mitomycin]: the “3H-thymidine incorporation of treated stimulator cells” value in the series with EL4-GD2+ cells was 188±4 cpm; in the series on Jurkat cells it was 107±5 cpm. On to `CC(=O)NC1C(OC2C(CO)OC(OC3C(CO)OC(Oc4ccc(N)cc4)C(O)C3O)C(O)C2OC2(C(=O)O)CC(O)C(NC(C)=O)C([C@H](O)C(CO)OC3(C(=O)O)CC(O)C(NC(C)=O)C([C@H](O)[C@H](O)CO)O3)O2)OC(CO)C(O)C1O` (stereo partly drawn) [AP-GD2], for which, in the series “Water solubility”, the solubility is over 20 mg/mL.
